Experiments:
Aβ(1-42) fibrils = assay: ELISA binding to Aβ(1-42) fibrils; set-up: species or system human; conditions: 250 ng/well, 10% N-biotinylated fibrils on streptavidin plate; scFv-IC16 12 and 23 nM; Penta-His and HRP anti-mouse detection, absorbance 450 nm
Protocol: (§1) 1 mg of Aβ(1-42) or N-terminally/C-terminally biotinylated Aβ(1-42) was dissolved in 1 ml 1,1,1,3,3,3-hexafluorosiopropanol (HFIP) and incubated overnight at room temperature. Afterwards, Aβ(1-42) was mixed in the favored ratio with N-terminally/C-terminally biotinylated Aβ(1-42) and aliquoted. HFIP was evaporated using a SpeedVac (Concentrator 5301, Eppendorf, Germany) at room temperature for 30 min. To evaporate remaining HFIP, the sample was incubated overnight at room temperature with an open lid.
(§2) The preparation of Aβ(1-42) monomers and oligomers was carried out by size exclusion chromatography (SEC) as already described by Johansson et al with minor modifications. 250 µg of Aβ peptide was dissolved in 130 µl SEC buffer (50 mM NaPi, pH 7.4; 150 mM NaCl; 0.6% Tween-20) and briefly centrifuged (1 min, 16 100×g, room temperature) to remove insoluble fibrillar material. 100 µl of the supernatant was applied on a Superdex75 10/300 column (GE Healthcare, UK) connected to an Äkta purifier system (GE Healthcare, UK). The sample was eluted at a flow rate of 0.6 ml per min at room temperature and detected at wavelengths of 214, 250 and 278 nm. […] The concentration of the Aβ preparations was determined using the Micro BCA Protein Assay Kit (Thermo Scientific, Waltham, MA, USA). […] The samples were measured at a wavelength of 570 nm with a Polarstar Optima plate reader (BMG, Ortenberg, Germany). […]

Aβ(1-42) oligomers = assay: ELISA binding to Aβ(1-42) oligomers; set-up: species or system human; conditions: 250 ng/well, 10% N-biotinylated oligomers on streptavidin plate; compared with fibrils, p = 0.0014
Protocol: as §1, §2

Aβ(2-8) = assay: SPR binding kinetics to immobilized Aβ(2-8)
Protocol: Binding kinetics were determined by SPR using a Biacore™ X (GE Healthcare, UK). Synthetic Aβ peptides were dissolved in 10 mM NaAc, pH 4.0. The CM5 sensor chip surface (GE Healthcare, UK) was activated using N-ethyl-N′-3 […] carbodiimide (EDC) and N-hydroxysuccinimide (NHS) chemistry followed by 2-(2-pyridinyldithio)ethaneamine hydrochloride (PDEA), in order to introduce a reactive thiol group. Aβ was coupled via the C-terminal cysteine to the chip at a flow rate of 5 µl/min, and the remaining active groups were blocked by injecting cysteine. The immobilization procedure was performed according to manufacturer’s recommendation. All kinetic analyses were performed at a flow rate of 20 µl/min in PBS. Varying concentrations of scFv-IC16 (10 to 5000 nM) and IC16 (10 to 1000 nM) were injected. […] When required, the surface was regenerated by injecting 20 µl 50 mM glycine, pH 11.0. The data evaluation was performed using Biaevaluation Software 4.1.1. ScFv-IC16 data were fitted according to the Langmuir 1∶1 binding model, whereas IC16 data were fitted according to the bivalent binding model. Standard errors of equilibrium dissociation constants (KD) were calculated using standard errors of the corresponding association and dissociation rate constants.

[1] = SPR Biacore X, CM5 chip, PBS, 25°C, global fit, scFv-IC16 Langmuir 1:1 model, IC16 bivalent model, ± standard error, SEM

For “scFv-IC16: single-chain variable fragment (VH-(Gly4Ser)3-VL, His6- and Myc-tag) derived from Aβ binding monoclonal antibody IC16, expressed in E. coli”, the “ELISA binding to Aβ fibrils” value (Aβ(1-42) fibrils) was “preferential binding”, the “ELISA binding to Aβ oligomers” value (Aβ(1-42) oligomers) was “weaker” and the Kd (Aβ(2-8); SPR Biacore X, CM5 chip, PBS, 25°C, global fit, scFv-IC16 Langmuir 1:1 model, IC16 bivalent model) was 112 nM. The k off (Aβ(2-8); [1]) was 7.65±0.03×10^−3 s^-1, the k on (Aβ(2-8); [1]) was 6.84±0.03×10^4 M^-1 s^-1 and the Kd (Aβ(2-8); SPR, Langmuir 1:1 binding model) was ~112 nM.

From article PMC3608532, “Characterization of a Single-Chain Variable Fragment Recognizing a Linear Epitope of Aβ: A Biotechnical Tool for Studies on Alzheimer’s Disease?” (PLoS ONE, 2013)
